Data on 35 molecules can be found in US12545659B2, “IRAK degraders and uses thereof” (Kymera Therapeutics, Inc., priority 2019, dated 2026).

Where only a bound is given, the exact number is not on record here.

For the first assay, the target named is T1, IRAK4 (Homo sapiens, UniProt Q9NWZ3).
T1 construct: endogenous in cells; host or cells: OCI-LY10
T1 sequence (Q9NWZ3 1-460): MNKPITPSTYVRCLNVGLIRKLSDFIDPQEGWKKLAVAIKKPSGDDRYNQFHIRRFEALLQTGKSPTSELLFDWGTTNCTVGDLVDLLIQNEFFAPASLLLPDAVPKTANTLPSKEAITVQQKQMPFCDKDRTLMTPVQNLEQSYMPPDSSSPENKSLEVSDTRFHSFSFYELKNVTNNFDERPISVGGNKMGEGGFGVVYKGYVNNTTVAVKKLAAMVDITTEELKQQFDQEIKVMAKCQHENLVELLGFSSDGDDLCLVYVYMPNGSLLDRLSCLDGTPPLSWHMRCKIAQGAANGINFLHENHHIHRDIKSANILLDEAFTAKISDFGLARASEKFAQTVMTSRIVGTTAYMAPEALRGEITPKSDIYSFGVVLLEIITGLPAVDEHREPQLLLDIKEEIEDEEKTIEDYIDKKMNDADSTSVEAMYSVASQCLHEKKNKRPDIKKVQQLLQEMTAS
Put plainly: IRAK4 MSD Degradation in OCI-LY10. The settings on record: OCI-LY10 cells, 4 hrs incubation, read-out: IRAK4 degradation in OCI-LY10 at 4 hrs: DC50. Type of assay: cell-based. The method, boiled down:
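OCI-LY10 cells treated with 8-dose, 1:3 dilution series (top final 1 to 10 μM) for 4 to 24 h at 37 °C, 5% CO2. Lysate IRAK4 quantified by MSD sandwich immunoassay (mouse 2H9 capture, rabbit Y279 detection, SULFO-TAG anti-rabbit); DC50 from three-parameter logistic fit.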
In the case of `COc1cc2nn([C@H]3CC[C@H](CN(C)C4CCN(c5cccc6c5n(C)c(=O)n6C5CCC(=O)NC5=O)CC4)CC3)cc2cc1NC(=O)c1ccc(F)c(C)n1` (some centres unmarked) [I-189], the DC50 was < 50 nM.

`Cn1c(=O)n(C2CCC(=O)NC2=O)c2cccc(C[C@H]3C[C@H](OC4CCN(C[C@H]5CC[C@H](n6cc7cc(NC(=O)c8cccc(C(F)(F)F)n8)c(C(C)(C)O)cc7n6)CC5)CC4)C3)c21` (some centres unmarked) [I-203]: the DC50 was < 50 nM. Turning to `Cn1c(=O)n(C2CCC(=O)NC2=O)c2cccc(CCC3CC4(CCN(C[C@H]5CC[C@H](n6cc7cc(NC(=O)c8cccc(OC(F)(F)F)n8)c(C(C)(C)O)cc7n6)CC5)CC4)C3)c21` (some centres unmarked) [I-204], the 50% degradation concentration (DC50) was in the range of 50 to 100 nM. Regarding `CN(CCCO[C@H]1C[C@H](Cc2cccc3c2n(C)c(=O)n3C2CCC(=O)NC2=O)C1)C[C@H]1CC[C@H](n2cc3cc(NC(=O)c4cccc(C(F)(F)F)n4)c(C(F)F)cc3n2)CC1` (some centres unmarked) [I-205], the DC50 lay in the range of 50 to 100 nM. Same read-out and setting: the result for `Cc1nc(C(=O)Nc2cc3cn([C@H]4CC[C@H](CN5CCC6(CC5)CC(CCc5cccc7c5n(C)c(=O)n7C5CCC(=O)NC5=O)C6)CC4)nc3cc2C(C)(C)O)ccc1F` (some centres unmarked) [I-206] reads < 50 nM; that for `COc1cccc(C(=O)Nc2cc3cn([C@H]4CC[C@H](CN5CCC6(CC5)CC(CCc5cccc7c5n(C)c(=O)n7C5CCC(=O)NC5=O)C6)CC4)nc3cc2C(C)(C)O)n1` (some centres unmarked) [I-207], 50 to 100 nM; that for `CN(C[C@H]1CC[C@H](n2cc3cc(NC(=O)c4cccc(C(F)(F)F)n4)c(N4CCOCC4)cc3n2)CC1)C1CCN(Cc2cccc3c2n(C)c(=O)n3C2CCC(=O)NC2=O)CC1` (some centres unmarked) [I-214], 50 to 100 nM.

With `Cn1c(=O)n(C2CCC(=O)NC2=O)c2cccc(C3CCN(C[C@H]4CC[C@H](n5cc6cc(NC(=O)c7cccc(C(F)(F)F)n7)c(C(C)(C)O)cc6n5)CC4)CC3)c21` (some centres unmarked) [I-226], the DC50 is < 50 nM.

As to `CN(CCCC#Cc1cccc2c1n(C)c(=O)n2C1CCC(=O)NC1=O)C[C@H]1CC[C@H](n2cc3cc(NC(=O)c4cccc(C(F)(F)F)n4)c(C(C)(C)O)cc3n2)CC1` (some centres unmarked) [I-228, N-(2-((1r,4r)-4-(((5-(1-(2,6-dioxopiperidin-3-yl)-3-methyl-2-oxo-2,3-dihydro-1H-benzo[d]imidazol-4-yl)pent-4-yn-1-yl)(methyl)amino)methyl)cyclohexyl)-6-(2-hydroxypropan-2-yl)-2H-indazol-5-yl)-6-(trifluoromethyl)picolinamide], the DC50 is < 50 nM.

As for `Cn1c(=O)n(C2CCC(=O)NC2=O)c2cccc(CC3CCN(C[C@H]4CC[C@H](n5cc6cc(NC(=O)c7cccc(C(F)(F)F)n7)c(C(C)(C)O)cc6n5)CC4)CC3)c21` (some centres unmarked) [I-229], the DC50 is < 50 nM.

Still in this assay, the particulars now being: OCI-LY10 cells, 24 hrs incubation, read-out: IRAK4 degradation in OCI-LY10 at 24 hrs: DC50.
For the molecule `COc1cc2nn([C@H]3CC[C@H](CN(C)[C@H]4CC[C@]5(CC4)C[C@@H](CNc4cccc6c4C(=O)N(C4CCC(=O)NC4=O)C6=O)C5)CC3)cc2cc1NC(=O)c1cccc(C(F)(F)F)n1` (some centres unmarked) [I-185], the DC50 lay in the range of 50 to 100 nM. Regarding `CN[C@@H](C)C(=O)N[C@H](C(=O)N1Cc2cc(OCCCC3CC4(CCN(C[C@H]5CC[C@H](n6cc7cc(NC(=O)c8cccc(C(F)(F)F)n8)c(OC)cc7n6)CC5)CC4)C3)ccc2C[C@H]1C(=O)N[C@@H]1CCCc2ccccc21)C(C)(C)C` [I-186, (3S)-2-[(2S)-3,3-Dimethyl-2-[[(2S)-2-(methylamino)propanoyl]amino]butanoyl]-7-[3-[7-[[4-[6-methoxy-5-[[6-(trifluoromethyl)pyridine-2-carbonyl]amino]indazol-2-yl]cyclohexyl]methyl]-7-azaspiro[3.5]nonan-2-yl]propoxy]-N-[(1R)-tetralin-1-yl]-3,4-dihydro-1H-isoquinoline-3-carboxamide], the DC50 fell in the range of 500 to 1000 nM. As to `CC(C)(O)c1cc2nn([C@H]3CC[C@H](CN4CCC5(CC4)CC(CNc4cccc6c4C(=O)N(C4CCC(=O)NC4=O)C6=O)C5)CC3)cc2cc1NC(=O)c1cccc(S(F)(F)(F)(F)F)n1` (some centres unmarked) [I-187], the DC50 is 50 to 100 nM.

Take `COc1c(NC(=O)c2cccc(C(C)(F)F)n2)cc2cn([C@H]3CC[C@H](CN4CC5(CC(CCNc6cccc7c6C(=O)N(C6CCC(=O)NC6=O)C7=O)C5)C4)CC3)nc2c1C` (some centres unmarked) [I-188]: the DC50 is 50 to 100 nM. Consider `C[C@]1(CN2CCC3(CC2)CC(CCNc2cccc4c2C(=O)N(C2CCC(=O)NC2=O)C4=O)C3)Cc2cc(NC(=O)c3cnn4cccnc34)c(N3CCOCC3)cc2O1` (stereo partly drawn) [I-196, N-[(2R)-2-[[2-[2-[[2-(2,6-dioxo-3-piperidyl)-1,3-dioxo-isoindolin-4-yl]amino]ethyl]-7-azaspiro[3.5]nonan-7-yl]methyl]-2-methyl-6-morpholino-3H-benzofuran-5-yl]pyrazolo[1,5-a]pyrimidine-3-carboxamide], for which the DC50 fell in the range of 500 to 1000 nM. With `CC(C)(O)c1cc2nc(N3CCC(CN4CCC5(CC4)CC(CCNc4cccc6c4C(=O)N(C4CCC(=O)NC4=O)C6=O)C5)CC3)oc2cc1NC(=O)c1cccc(C(F)(F)F)n1` (centres unmarked) [I-197], the DC50 lay in the range of 500 to 1000 nM. Turning to `COc1cc2nc([C@H]3CC[C@H](CN4CC5(CC(CCNc6cccc7c6C(=O)N(C6CCC(=O)NC6=O)C7=O)C5)C4)CC3)oc2cc1NC(=O)c1cccc(C(C)(F)F)n1` (some centres unmarked) [I-198], the DC50 lay in the range of 50 to 100 nM. In the case of `O=C1CCC(N2C(=O)c3cccc(NCCC4CC5(CCN(C[C@H]6CC[C@H](c7nc8cc(N9CCOCC9)c(NC(=O)c9cccc(C(F)(F)F)n9)cc8o7)CC6)CC5)C4)c3C2=O)C(=O)N1` (some centres unmarked) [I-199], the DC50 was 500 to 1000 nM. Take `CC(F)(F)c1cccc(C(=O)Nc2cc3cn([C@H]4CC[C@H](CN5CC6(CC(CCNc7cccc8c7C(=O)N(C7CCC(=O)NC7=O)C8=O)C6)C5)CC4)nc3cc2OC2CC2)n1` (some centres unmarked) [I-200]: the DC50 lay in the range of 50 to 100 nM. Consider `CC(C)Oc1cc2nn([C@H]3CC[C@H](CN4CCC5(CC4)CC(Nc4cccc6c4C(=O)N(C4CCC(=O)NC4=O)C6=O)C5)CC3)cc2cc1NC(=O)c1cccc(C(F)(F)F)n1` (some centres unmarked) [I-202], for which the DC50 is 50 to 100 nM. Still for that read-out and setting: in the case of `COc1cc2nn([C@H]3CC[C@H](CN4CCC5(CC4)CC(CCNc4cccc6c4C(=O)N(C4CCC(=O)NC4=O)C6=O)C5)CC3)cc2cc1NC(=O)c1nc(C(F)(F)F)cs1` (some centres unmarked) [I-208] it was 100 to 500 nM; in that of `COc1cc2nn([C@H]3CC[C@H](CN4CCC5(CC4)CC(CNc4cccc6c4C(=O)N(C4CCC(=O)NC4=O)C6=O)C5)CC3)cc2cc1NC(=O)c1cccc(C(F)F)n1` (some centres unmarked) [I-209], < 50 nM; in that of `COc1cc2nn([C@H]3CC[C@H](CN(C)[C@H]4CC[C@H](CNc5cccc6c5C(=O)N(C5CCC(=O)NC5=O)C6=O)CC4)CC3)cc2cc1NC(=O)c1cccc(C(F)(F)F)n1` (some centres unmarked) [I-210], 50 to 100 nM. Regarding `COc1cc2nn([C@H]3CC[C@H](CN(C)[C@H]4CC[C@H](Nc5cccc6c5C(=O)N(C5CCC(=O)NC5=O)C6=O)CC4)CC3)cc2cc1NC(=O)c1cccc(C)n1` (some centres unmarked) [I-211], the DC50 was < 50 nM. For the molecule `CCOc1cc2nn([C@H]3CC[C@H](CN4CCC5(CC4)CC(CCNc4cccc6c4C(=O)N(C4CCC(=O)NC4=O)C6=O)C5)CC3)cc2cc1NC(=O)c1cccc(C(F)(F)F)n1` (some centres unmarked) [I-212], the DC50 is 100 to 500 nM. With `COc1cc2nn([C@H]3CC[C@H](CN(C)CCCO[C@H]4C[C@@H](Nc5cccc6c5C(=O)N(C5CCC(=O)NC5=O)C6=O)C4)CC3)cc2cc1NC(=O)c1cccc(C(F)(F)F)n1` (some centres unmarked) [I-213], the DC50 fell in the range of 100 to 500 nM.

Turning to `COc1cc2nn([C@H]3CC[C@H](CN4CCC5(CC4)CC(CNc4cccc6c4C(=O)N(C4CCC(=O)NC4=O)C6=O)C5)CC3)cc2cc1NC(=O)c1cccc(-c2cnn(C)c2)n1` (some centres unmarked) [I-218], the DC50 lay in the range of 50 to 100 nM.

`COc1cc2nn([C@H]3CC[C@H](CN(C)C4CCC5(CC4)CC(CNc4cccc6c4C(=O)N(C4CCC(=O)NC4=O)C6=O)C5)CC3)cc2cc1NC(=O)c1cccc(-c2cnn(C)c2)n1` (some centres unmarked) [I-219]: the DC50 was in the range of 50 to 100 nM.

With `COc1cc2nn([C@H]3CC[C@H](CN4CCC5(CC4)CCN(c4cccc6c4C(=O)N(C4CCC(=O)NC4=O)C6=O)CC5)CC3)cc2cc1NC(=O)c1cccc(C(F)(F)F)n1` (some centres unmarked) [I-220], the DC50 fell in the range of 50 to 100 nM. For the molecule `CN(CCCO[C@H]1C[C@H](Nc2cccc3c2C(=O)N(C2CCC(=O)NC2=O)C3=O)C1)C[C@H]1CC[C@H](n2cc3cc(NC(=O)c4coc(-c5ccnc(NCC6CC6)c5)n4)c(C(C)(C)O)cc3n2)CC1` (some centres unmarked) [I-221], the DC50 was < 50 nM. For `COc1cc2nn([C@H]3CC[C@H](CN4CCC5(CC4)CC(CNc4ccc6c(c4)C(=O)N(C4CCC(=O)NC4=O)C6=O)C5)CC3)cc2cc1NC(=O)c1cccc(C(F)(F)F)n1` (some centres unmarked) [I-222], the DC50 is 50 to 100 nM.

Take `COc1cc2nn([C@H]3CC[C@H](CN(C)C4CCC5(CC4)CC(Nc4cccc6c4C(=O)N(C4CCC(=O)NC4=O)C6=O)C5)CC3)cc2cc1NC(=O)c1cccc(C(F)(F)F)n1` (some centres unmarked) [I-223]: the DC50 was in the range of 50 to 100 nM.

For `COc1cc2nn([C@H]3CC[C@H](CN4CCC5(CC4)CC(Nc4cccc6c4C(=O)N(C4CCC(=O)NC4=O)C6=O)C5)CC3)cc2cc1NC(=O)c1ccc(F)c(C)n1` (some centres unmarked) [I-224], the 50% degradation concentration (DC50) was < 50 nM. On to `CN(CCCO[C@H]1C[C@H](Nc2cccc3c2C(=O)N(C2CCC(=O)NC2=O)C3=O)C1)C[C@H]1CC[C@H](n2cc3cc(N(C)C(=O)c4cccc(C(F)(F)F)n4)c(C(C)(C)O)cc3n2)CC1` (some centres unmarked) [I-225], for which the half-maximal degradation concentration (DC50) is 500 to 1000 nM. `COc1cc2nn([C@H]3CC[C@H](CN4CCO[C@@H](CCCNc5cccc6c5C(=O)N(C5CCC(=O)NC5=O)C6=O)C4)CC3)cc2cc1NC(=O)c1cccc(C(F)(F)F)n1` (some centres unmarked) [I-227]: the DC50 lay within 50 to 100 nM.
